The numbers were not newly measured in patent US20240043404A1 (AbbVie Inc., priority 2009, published 2024), which cites them from elsewhere.

This data set concerns RS4;11 cells. To be noted: RS4;11 acute lymphoblastic leukemia cell line; cited from earlier work.

As to `CN(C)CC[C@H](CSc1ccccc1)Nc1ccc(S(=O)(=O)NC(=O)c2ccc(N3CCN(Cc4ccccc4-c4ccc(Cl)cc4)CC3)cc2)cc1[N+](=O)[O-]` [ABT-737, N-(4-(4-((4′-chloro(1,1′-biphenyl)-2-yl)methyl)piperazin-1-yl)benzoyl)-4-(((1R)-3-(dimethylamino)-1-((phenylsulfanyl)methyl)propyl)amino)-3-nitrobenzenesulfonamide], the “sensitivity of RS4;11 cells to inhibitor” value was “sensitive”.
